# Test results from PubChem BioAssay (NCI).
# Where “and” joins values, the source holds several entries; their conditions need not be identical. Equal entries are not always repeated.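 A five-concentration, 48-hour dose response in 96-well plates underlies each endpoint, interpolated linearly between surrounding concentrations. GI50 marks 50% less growth. TGI is the concentration that stops growth completely.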
# What was measured:
# Experiment in all cases: NCI-60 cell line screen, 48 h
# HL-60(TB) leukemia = test system: HL-60(TB) leukemia
# SF-295 CNS = test system: SF-295 CNS
# CAKI-1 renal = test system: CAKI-1 renal
# NCI-H226 lung = test system: NCI-H226 lung
# COLO 205 colon = test system: COLO 205 colon
# EKVX NSCLC = test system: EKVX NSCLC
# K-562 leukemia = test system: K-562 leukemia
# OVCAR-8 ovarian = test system: OVCAR-8 ovarian
# KM12 colon = test system: KM12 colon
# NCI-H522 lung = test system: NCI-H522 lung
SMILES,TGI (HL-60(TB) leukemia),TGI (SF-295 CNS),TGI (CAKI-1 renal),TGI (NCI-H226 lung),TGI (COLO 205 colon),TGI (EKVX NSCLC),TGI (K-562 leukemia),TGI (OVCAR-8 ovarian),TGI (KM12 colon),GI50 (HL-60(TB) leukemia),GI50 (SF-295 CNS),GI50 (NCI-H226 lung),GI50 (COLO 205 colon),GI50 (NCI-H522 lung),TGI (NCI-H522 lung),GI50 (EKVX NSCLC),GI50 (K-562 leukemia),GI50 (OVCAR-8 ovarian),GI50 (KM12 colon),GI50 (CAKI-1 renal)
OC1CN(OC/C=C/c2ccccc2)CC(O)C1O (stereo not drawn),> 100 µM,> 100 µM,> 100 µM,> 100 µM,> 100 µM,> 100 µM,> 100 µM,> 100 µM,> 100 µM,,,,,,,,,,,
COc1cc2c(cc1OCCCCNC(=O)c1cc3ccccc3[nH]1)N=CC1CCCN1C2=O (stereo not drawn),> 100 µM,41.6 µM,,> 100 µM,> 100 µM,42.2 µM,> 100 µM,78.9 µM,52.6 µM,7.97 µM,12.7 µM,30.7 µM,16 µM,4.43 µM,79.9 µM,17.8 µM,8.35 µM,16.7 µM,16.9 µM,
NC(=O)c1ccccc1NC(=O)C(=O)C(C(=O)c1ccc2ccccc2c1)C1OC(=O)c2ccccc21 (stereo not drawn),,,33 µM,9.88 µM,24.6 µM,75.6 µM,83.9 µM,,49 µM,,,,,,43.2 µM,,,,,
N/C(=N\O)c1ncc(-c2ccc(C(F)(F)F)cc2)c(NC2CCCCCC2)n1,5.52 µM,12.5 µM,8.1 µM,26.8 µM,10.6 µM,,11.8 µM,13.4 µM,13.1 µM,2.06 µM,2.55 µM,4.24 µM,3.44 µM,1.92 µM,7.69 µM,,4.36 µM and 1.71 µM,4.6 µM and 2.19 µM,6.51 µM and 3.13 µM,5.71 µM and 1.69 µM
O=C(Nc1cccc(Cl)c1)Nc1cccc(Cl)c1,> 100 µM,> 100 µM,,> 100 µM,,,> 100 µM,> 100 µM,,5.02 µM,3.01 µM,> 100 µM,,2.04 µM,> 100 µM,,3.23 µM,15.3 µM,,
O=S(=O)(NCCNc1nccc(-c2c(-c3cccc(O)c3)nc3sccn23)n1)c1ccc(F)cc1,,,40.5 µM,45 µM,11.5 µM,,> 100 µM,39.3 µM,16.2 µM,,,7.03 µM,0.779 µM,6.44 µM,27.1 µM,,3.88 µM,4.61 µM,4.36 µM,3.69 µM
COc1ccc(/C=C/c2cc(OC)c(O[Si](C)(C)C(C)(C)C)c(OC)c2)cc1,,,> 100 µM,> 100 µM,> 100 µM,> 100 µM,> 100 µM,> 100 µM,> 100 µM,,,,,,> 100 µM,,,,,
CN(C)CCNC(=O)c1cccc2nc3ccc4ccccc4c3nc12,0.494 µM,0.53 µM,0.541 µM,0.513 µM,0.206 µM,0.468 µM,25.6 µM,0.284 µM,0.876 µM,,,,,,,,,,,
COC(=O)/C(C#N)=C\N1CCN(C(=O)c2ccco2)C1=S,> 100 µM,65.1 µM,14.1 µM,,> 100 µM,28.5 µM,> 100 µM,56.2 µM,12.6 µM,6.94 µM,26 µM,,31.7 µM,,,10.2 µM,3.68 µM,15.5 µM,3.3 µM,3.43 µM
COc1ccc(CN2c3ccccc3Sc3ccccc32)cc1F,,> 48.4 µM,> 100 µM,> 100 µM,1.36 µM,> 100 µM,> 100 µM,> 100 µM,> 100 µM,,0.323 µM,> 47.1 µM,0.31 µM,0.266 µM,0.804 µM,0.78 µM,0.383 µM,0.712 µM,0.471 µM,0.399 µM
O=C1C2=C(C(=O)c3c(O)ccc(O)c31)N(c1ccc(N3CCOCC3)nc1)Cc1ccccc1O2,0.616 µM,4.63 µM,,7.81 µM,0.318 µM,1.67 µM,,12.3 µM,3.92 µM,0.17 µM,2.01 µM,1.91 µM,0.137 µM,0.0581 µM,0.194 µM,0.27 µM,0.0889 µM,0.35 µM,1.55 µM,
COC(=O)CCC(NC(=S)N/N=C(\C)c1ccccn1)C(=O)OC (stereo not drawn),53.1 µM,> 100 µM,,> 100 µM,> 100 µM,> 100 µM,> 100 µM,> 100 µM,> 100 µM,,,,,,> 100 µM,,,,,
Cc1ccc(SSCCCS(=O)O)cc1,6.49 µM,> 100 µM,> 100 µM,,52.9 µM,88.5 µM,> 100 µM,50 µM,> 100 µM,,,,,,37.5 µM,,,,,
C=C1CC[C@@H]2C(C)(C)[C@@H](O)CC[C@@]2(C)[C@@H]1COc1ccc2ccc(=O)oc2c1,45.6 µM,22.9 µM,55.6 µM,,,25.6 µM,> 100 µM,78.7 µM,29.1 µM,,10.5 µM,,,13.1 µM,36.1 µM,10.6 µM,6.43 µM,,12.3 µM,13.4 µM
NC(=S)N/N=C(/CC(=O)c1ccc([N+](=O)[O-])cc1)C(=O)Nc1ncc([N+](=O)[O-])s1,> 100 µM,> 100 µM,,> 100 µM,> 100 µM,> 100 µM,,> 100 µM,> 100 µM,,,,,,,,,,,
O=C(CC(=O)N1N=C(n2ccc3ccccc32)CC1c1ccccc1)Nc1cccc(Cl)c1 (stereo not drawn),> 100 µM,> 100 µM,,,> 100 µM,> 100 µM,> 100 µM,> 100 µM,> 100 µM,,,,,,> 100 µM,,,,,
c1cncc(CNc2ccccc2-c2nnc(Nc3ccc4c(c3)OCO4)o2)c1,0.147 µM,> 100 µM,> 100 µM,,0.551 µM,> 100 µM,> 100 µM,> 100 µM,> 100 µM,0.0259 µM,0.0528 µM,,0.0411 µM,0.0247 µM,0.0709 µM,0.328 µM,0.0474 µM,0.127 µM,0.0505 µM,0.0551 µM
COc1ccc(/C=C/C(=O)c2sc(N)nc2C)cc1,> 100 µM,> 100 µM,> 100 µM,,> 100 µM,> 100 µM,> 100 µM,> 100 µM,> 100 µM,,,,,,> 100 µM,,,,,
CC(C)c1cc(C(C)C)c(S(=O)(=O)NN)c(C(C)C)c1,,> 100 µM,> 100 µM,,> 100 µM,> 100 µM,> 100 µM,> 100 µM,> 100 µM,,,,,,,,,,,
C=CCC(C(=O)OC)C1(C(=O)OC)c2[nH]c3ccccc3c2CCN1Cc1ccccc1 (stereo not drawn),> 100 µM,> 100 µM,> 100 µM,,> 100 µM,> 100 µM,,> 100 µM,> 100 µM,,,,,,> 100 µM,,,,,
C=C1C(=O)OC2CCCCC3OC3C12 (stereo not drawn),9.72 µM,48.6 µM,9.83 µM,,11.5 µM,34.6 µM,70.5 µM,32.4 µM,31.8 µM,,,,,,3.91 µM,,,,,
N=C(N)n1ncc(Cl)c(Cl)c1=O,,22.6 µM,3.31 µM,18.3 µM,3.43 µM,5.07 µM,6.36 µM,4.55 µM,20.2 µM,,,,,,3.43 µM,,,,,
COC1=C(OC)C(=O)C(/C=C(\C)C(=O)O)=C(C)C1=O,> 100 µM,> 100 µM,> 100 µM,,> 100 µM,> 100 µM,> 100 µM,> 100 µM,> 100 µM,> 100 µM,> 100 µM,,> 100 µM,> 100 µM,> 100 µM,> 100 µM,> 100 µM,> 100 µM,> 100 µM,> 100 µM
O=[N+]([O-])c1cccc(C2SCc3nc4ccccc4n32)c1 (stereo not drawn),> 100 µM,> 100 µM,> 100 µM,> 100 µM,> 100 µM,> 100 µM,> 100 µM,> 100 µM,> 100 µM,,,,,,,,,,,
Fc1ccc(-c2nc(-c3nc4ccc(Cl)cc4[nH]3)cc3c2[nH]c2ccccc23)cc1,17.8 µM,,24 µM,15.5 µM,4.22 µM,,38.4 µM,10.7 µM,13.7 µM,4.32 µM,,3.34 µM,1.89 µM,2.74 µM,12.9 µM,,3.32 µM,2.88 µM,3.46 µM,3.22 µM
C/C(=N\NC(=O)CC(=O)Nc1ccc(C)cc1)c1cc2ccccc2oc1=O,> 100 µM,> 100 µM,,> 100 µM,> 100 µM,> 100 µM,> 100 µM,> 100 µM,> 100 µM,,,,,,> 100 µM,,,,,
O=C1NC(=NCC(CO)c2ccccc2)S/C1=C\c1ccc2ncccc2c1 (stereo not drawn),> 25 µM,> 25 µM,> 25 µM,> 25 µM,> 25 µM,,> 25 µM,> 25 µM,> 25 µM,8.34 µM,> 25 µM,> 25 µM,7.77 µM,> 14.1 µM,> 25 µM,,10.6 µM,> 25 µM,14.7 µM,> 25 µM
